Reference: patent publication US20070197957A1, “Implantable sensors, implantable pumps and anti-scarring drug combinations” (priority 2005, published 2007)
pIC50: −log10 of the molar value. Entries after “also recorded” stand apart in the source; their conditions may differ.

Experiments:
[1] = 200 mg/day orally; cited from earlier work
[2] = water; cited from earlier work
AP-1 = test: IL-1 induced AP-1 binding activity in chondrocyte lysates; format: cell-based; conditions: lysates from chondrocytes pretreated with the agent (FIG. 1C)
collagenase (MMP-1) mRNA = test: IL-1 induced MMP-1 (collagenase) mRNA expression in chondrocytes, Northern blot
[3] = test system: AP-1 DNA binding activity; test: IL-1 induced AP-1 DNA binding activity, gel mobility shift assay with chondrocyte extracts; format: cell-based; conditions: chondrocyte lysates, pretreated with paclitaxel 10^−7 to 10^−5 M for 24 hours
Procedure: Binding activity was assayed with a radiolabeled human AP-1 sequence probe and gel mobility shift assay. Extracts from chondrocytes untreated or treated with various amounts of paclitaxel (10^−7 to 10^−5M) followed by IL-1β (20 ng/ml) were incubated with excess probe on ice for 30 minutes, followed by non-denaturing gel electrophoresis. The “com” lane contains excess unlabeled AP-1 oligonucleotide. The results shown are representative of three independent experiments.

stromelysin (MMP-3) mRNA = test: IL-1 induced MMP-3 (stromelysin) mRNA expression in chondrocytes, Northern blot
[4] = test system: collagenase and stromelysin; test: IL-1 induced collagenase and stromelysin RNA levels in chondrocytes; format: cell-based; conditions: pretreatment (FIG. 1D)
[5] = test system: Primary human smooth muscle cells; test: Smooth muscle cell migration assay (Boyden chamber, rhPDGF-BB chemotaxis); format: cell-based; conditions: chemotaxis to rhPDGF-BB 10 ng/ml, 4 hours
Procedure: Primary human smooth muscle cells were starved of serum in smooth muscle cell basal media containing insulin and human basic fibroblast growth factor (bFGF) for 16 hours prior to the assay. For the migration assay, cells were trypsinized to remove cells from flasks, washed with migration media and diluted to a concentration of 2-2.5×10^5 cells/ml in migration media. […] A 100 μL volume of smooth muscle cells (approximately 20,000-25,000 cells) was added to the top of a Boyden chamber assembly (Chemicon QCM CHEMOTAXIS 96-well migration plate). To the bottom wells, the chemotacetic agent, recombinant human platelet derived growth factor (rhPDGF-BB) was added at a concentration of 10 ng/ml in a total volume of 150 μL. Paclitaxel was prepared in DMSO at a concentration of 10^−2 M and serially diluted 10-fold to give a range of stock concentrations (10^−8 M to 10^−2 M). […]
At the end of the 4 hour period, cells in the top chamber were discarded and the smooth muscle cells attached to the underside of the filter were detached for 30 minutes at 37° C. in Cell Detachment Solution (Chemicon). […] Relative fluorescence units from triplicate wells were averaged after subtracting background fluorescence (control chamber without chemoattractant) and average number of cells migrating was obtained from a standard curve of smooth muscle cells serially diluted from 25,000 cells/well down to 98 cells/well.

[6] = test system: AP-1 transcriptional activity; test: IL-1 stimulated AP-1 transcriptional activity (AP-1 driven CAT reporter gene) in transfected chondrocytes; format: cell-based; conditions: IL-1 50 ng/ml, 24 hours, paclitaxel 10^−7 to 10^−5 M
Description: The results shown are representative of three independent experiments.

[7] = test system: Chick Chorioallantoic Membrane (CAM) vasculature; test: Chick chorioallantoic membrane (CAM) angiogenesis assay; format: in vivo; conditions: for Inhibition/n: 48 hours exposure
Procedure: Fertilized, domestic chick embryos were incubated for 3 days prior to shell-less culturing. In this procedure, the egg contents were emptied by removing the shell located around the air space. The interior shell membrane was then severed and the opposite end of the shell was perforated to allow the contents of the egg to gently slide out from the blunted end. The egg contents were emptied into round-bottom sterilized glass bowls and covered with petri dish covers. These were then placed into an incubator at 90% relative humidity and 3% CO2 and incubated for 3 days.
Ten microliter aliquots of this solution were dried on parafilm for 1 hour forming disks 2 mm in diameter. The dried disks containing paclitaxel were then carefully placed at the growing edge of each CAM at day 6 of incubation. Controls were obtained by placing paclitaxel-free methylcellulose disks on the CAMs over the same time course. After a 2 day exposure (day 8 of incubation) the vasculature was examined with the aid of a stereomicroscope. Liposyn II, a white opaque solution, was injected into the CAM to increase the visibility of the vascular details. The vasculature of unstained, living embryos were imaged using a Zeiss stereomicroscope which was interfaced with a video camera (Dage-MTI Inc., Michigan City, Ind.). […] Image negatives were then made on a graphics recorder (Model 3000; Matrix Instruments, Orangeburg, N.Y.).
The membranes of the 8 day-old shell-less embryo were flooded with 2% glutaraldehyde in 0.1M sodium cacodylate buffer; additional fixative was injected under the CAM. After 10 minutes in situ, the CAM was removed and placed into fresh fixative for 2 hours at room temperature. The tissue was then washed overnight in cacodylate buffer containing 6% sucrose. The areas of interest were postfixed in 1% osmium tetroxide for 1.5 hours at 4° C. The tissues were then dehydrated in a graded series of ethanols, solvent exchanged with propylene oxide, and embedded in Spurr resin. Thin sections were cut with a diamond knife, placed on copper grids, stained, and examined in a Joel 1200EX electron microscope. Similarly, […] sections were cut and stained with […] for light microscopy.
At day 11 of development, chick embryos were used for the corrosion casting technique. Mercox resin (Ted Pella, Inc., Redding, Calif.) was injected into the CAM vasculature using a 30-gauge hypodermic needle. […] After injection, the plastic was allowed to sit in situ for an hour at room temperature and then overnight in an oven at 65° C. The CAM was then placed in 50% aqueous solution of sodium hydroxide to digest all organic components.
This imaging setup was used at a magnification of 160× which permitted the direct visualization of blood cells within the capillaries; thereby blood flow in areas of interest may be easily assessed and recorded. For this study, the inhibition of angiogenesis was defined as an area of the CAM (measuring 2-6 mm in diameter) lacking a capillary network and vascular blood flow. Throughout the experiments, avascular zones were assessed on a 4 point avascular gradient (Table 11). This scale represents the degree of overall inhibition with maximal inhibition represented as a 3 on the avascular gradient scale.

[8] = test system: mast cells and eosinophil
glucocorticoid receptor = molecular target: T1, glucocorticoid receptor (Homo sapiens, UniProt P04150); test: glucocorticoid receptor trafficking (mechanism study); format: cell-based
T1 construct: host or cells: T cells are named only for the GRE reporter experiment in the same sentence

NFkB and AP1 = NFkB and AP1 activation; format: cell-based
p38 and JNK = p38 and JNK activation; format: cell-based
NFAT = NFAT activation, translocation and transactivation; format: cell-based
ERK = ERK activation; format: cell-based
GRE reporter plasmid = test: transactivation of a transfected GRE reporter plasmid in T cells; format: cell-based
TNF-α = test: acute in vivo model of inflammation (LPS-induced TNF-α production); conditions: amoxapine alone or reduced dose prednisolone alone
[9] = chronic in vivo arthritis model (adjuvant model), joint swelling; conditions: amoxapine alone or reduced dose prednisolone alone
[10] = test system: carrageenan-induced paw edema; test: Rat carrageenan-induced paw edema model, paw swelling; format: in vivo; conditions: amoxapine alone at 2.26 mg/kg
Procedure: A dose-range finding study was performed to determine the anti-inflammatory activity of various ratios of methyl prednisolone acetate and amoxapine in a rat carrageenan-induced paw edema model. […] The molar ratio of methyl prednisolone acetate to amoxapine ranged from 1:1 to 1:300, using total doses of methyl prednisolone acetate of 0.01, 0.03 or 0.1 mg/kg.
The test agent (a combination of methyl prednisolone acetate and amoxapine), vehicle control, or reference agents (methyl prednisolone acetate, amoxapine, or Depo-Medrol®) were administered in the left hind foot pad of rats. After 60 minutes, paw edema was induced by injection of 100 μl of 1% carrageenan in the same foot pad. The paw volume was measured with a water displacement plethysmometer immediately prior to test agent injection (T-1h), at the time of carrageenan injection (T0h), and at T6h. Animals were euthanized by carbon dioxide inhalation. Paw tissue samples were collected and flash frozen in liquid nitrogen. Samples were assayed for TNF-α by enzyme-linked immunoassay (ELISA).

[11] = in vivo; cited from earlier work
[12] = 10^−5 M paclitaxel, 24 hours pretreatment
[13] = chondrocytes pretreated with paclitaxel for 24 hours
[14] = within 48 hours, depending on concentration

T1 sequence (P04150 whole entry, species assumed): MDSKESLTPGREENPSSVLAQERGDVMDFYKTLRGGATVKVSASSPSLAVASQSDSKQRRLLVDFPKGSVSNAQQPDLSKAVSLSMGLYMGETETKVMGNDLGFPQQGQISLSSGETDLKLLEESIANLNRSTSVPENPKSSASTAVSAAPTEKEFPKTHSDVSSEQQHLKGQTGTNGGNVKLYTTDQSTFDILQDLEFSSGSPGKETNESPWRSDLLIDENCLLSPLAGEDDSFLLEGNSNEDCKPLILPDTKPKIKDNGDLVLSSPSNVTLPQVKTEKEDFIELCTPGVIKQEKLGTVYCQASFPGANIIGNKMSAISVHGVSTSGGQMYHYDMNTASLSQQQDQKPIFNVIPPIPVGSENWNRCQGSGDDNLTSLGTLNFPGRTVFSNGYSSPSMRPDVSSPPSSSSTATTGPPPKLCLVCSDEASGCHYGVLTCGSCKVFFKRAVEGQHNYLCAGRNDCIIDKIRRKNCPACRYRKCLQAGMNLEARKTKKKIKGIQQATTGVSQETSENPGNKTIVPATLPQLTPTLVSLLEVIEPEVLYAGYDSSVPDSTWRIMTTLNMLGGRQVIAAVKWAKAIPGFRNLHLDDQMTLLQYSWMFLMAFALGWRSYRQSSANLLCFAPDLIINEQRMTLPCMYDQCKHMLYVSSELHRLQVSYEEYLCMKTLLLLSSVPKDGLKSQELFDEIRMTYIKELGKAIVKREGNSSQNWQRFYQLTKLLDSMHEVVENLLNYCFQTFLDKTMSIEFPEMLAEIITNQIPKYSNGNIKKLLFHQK

CC(=O)N1CCN(c2ccc(OCC3COC(Cn4ccnc4)(c4ccc(Cl)cc4Cl)O3)cc2)CC1 (stereo not drawn) [ketoconazole]
serum concentration [1]: about 3.2 micrograms
solubility in water [2]: essentially insoluble in water

CC(=O)O[C@H]1C(=O)[C@@]2(C)[C@H]([C@H](OC(=O)c3ccccc3)[C@]3(O)C[C@H](OC(=O)[C@H](O)[C@@H](NC(=O)c4ccccc4)c4ccccc4)C(C)=C1C3(C)C)[C@]1(OC(C)=O)CO[C@@H]1C[C@@H]2O [paclitaxel]
IL-1 induced binding activity (AP-1): decreased
inhibition of collagenase mRNA expression (collagenase (MMP-1) mRNA; [12]): complete inhibition
collagenase mRNA levels, IL-1 induced (collagenase (MMP-1) mRNA; [13]): significantly reduced
concentration inhibiting collagenase expression in vitro (collagenase (MMP-1) mRNA; chondrocytes, IL-1 induced): 10^−6 M
IL-1 induced AP-1 binding activity to oligonucleotides [3]: decreased
inhibition of stromelysin mRNA expression (stromelysin (MMP-3) mRNA; [12]): complete inhibition
stromelysin mRNA levels, IL-1 induced (stromelysin (MMP-3) mRNA; [13]): significantly reduced
concentration inhibiting stromelysin expression in vitro (stromelysin (MMP-3) mRNA; chondrocytes, IL-1 induced): 10^−6 M
IL-1 induction of collagenase and stromelysin RNA levels [4]: inhibited
pIC50 [5]: 9.12
IL-1 induced AP-1 reporter gene CAT activity [6]: decreased CAT activity in a concentration dependent manner; also recorded: reduced IL-1 induced AP-1 reporter gene CAT activity
Inhibition/n ([7]; 0.25 ug in methylcellulose (10 ul) disk): 2/11
Inhibition/n ([7]; 0.5 ug in methylcellulose (10 ul) disk): 6/11
Inhibition/n ([7]; 1 ug in methylcellulose (10 ul) disk): 6/15
Inhibition/n ([7]; 5 ug in methylcellulose (10 ul) disk): 20/27
Inhibition/n ([7]; 10 ug in methylcellulose (10 ul) disk): 16/21
Inhibition/n ([7]; 30 ug in methylcellulose (10 ul) disk): 31/31
angiogenesis in the CAM ([7]; 48 hours after application to the CAM): inhibited
avascular gradient scale, maximal avascular zone [7, 14]: 3
maximal avascular zone diameter [7, 14]: 6 mm

CCOC(=O)N1CCC(=C2c3ccc(Cl)cc3CCc3cccnc32)CC1 [loratadine]
effect on mast cells and eosinophil activation [8]: inhibits

Clc1ccc2c(c1)C(N1CCNCC1)=Nc1ccccc1O2 [amoxapine]
promotion of glucocorticoid receptor trafficking (glucocorticoid receptor): does not promote
effect on NFkB and AP1 activation (NFkB and AP1): partially inhibits
effect on p38 and JNK activation (p38 and JNK): Inhibition
effect on NFAT activation, translocation and transactivation (NFAT): block
effect on ERK activation (ERK): unaffected
potentiation of prednisolone's ability to transactivate a GRE reporter plasmid (GRE reporter plasmid): does not potentiate
benefit of the single agent (TNF-α): modest or no benefit
benefit of the single agent [9]: modest or no benefit
paw edema compared with vehicle treatment, in words [10]: not significantly different from the vehicle treatment

CN(C)/N=N/c1[nH]cnc1C(N)=O [Dacarbazine, dacarbazine]
absorption from the GI tract [11]: poorly absorbed
